# Measurements as given in patent US5858692A, “Polychlorinated biphenyls (PCB) immunoassay method, its components and a kit for use in performing the same” (ENSYS, Inc., priority 1995, dated 1999).
# Test system: monoclonal F40-11G6 antibody (anti-PCB monoclonal antibody)
# Test: 1 ppm PCB immunoassay (competitive ELISA), cross-reactivity of compounds found at PCB sites or of similar structure
# Format: binding, Balb/c mice
# Settings: for PERCENT CROSS-REACTIVITY: calculated percent cross-reactivity in the 1 ppm PCB immunoassay; for CONCENTRATION GIVING A POSITIVE RESULT; SOIL EQUIVALENT / CON[…] A POSITIVE RESULT; SOIL EQUIVALENT: positive compared to the kit standard (AROCLOR 1248, 0.7 ppm) in the 1 ppm PCB immunoassay
# Protocol: The immunoassay of the present invention is performed according to the following procedure. Monoclonal anti-PCB antibody is immobilized in an assay vessel, or other solid support, preferably to the bottom of a polystyrene tube, at a concentration, of from 0.005 to 20 μg/tube, preferably 0.1 to 0.4 μg/tube. The concentration and affinity of the antibody for the sample molecules and reporter reagent molecules directly influences the overall sensitivity of the final method.
# Antibody coated tubes were prepared by passively coating polystyrene (12×75 mm, NUNC) tubes with the monoclonal F40-11G6 antibody diluted in PBS and incubating overnight.
# 10 g of a soil sample were placed in an extraction vial containing 20 mL of methanol and 5 steel pellets (6mm) and the vial and its contents shaken for 1 minute to disperse the soil particles and extract the PCB. The sample was then filtered to clarify the sample using a filter of glass fiber and 0.45μ Teflon. 45 uL of the clarified filtrate sample was mixed with 955 μl of 10 mM PBS (pH=7.4) and the resulting mixture added to lyophilized enzyme conjugate reagent (0.3 μg) and mixed. At the same time, 2×45 uL of the AROCLOR 1248 standard are similarly treated. The sample and the two standards were then poured into three identical antibody coated tubes, respectively, and the resulting solution mixed. The resulting solution was incubated for 10 minutes at ambient temperature and then washed 4× with a wash buffer (detergent-saline solution). 250 uL of tetramethylbenzidene solution (KP Laboratories, Cat. No. 50-76-02) was added along with 250 uL of hydrogen peroxide solution (KPL, Cat. No. 50-65-02) and the resultant solution mixed. After incubating for 2.5 minutes the color development reaction was stopped with 250 uL of stop solution (1M sulfuric acid).
# The optical density (OD) of the test sample was compared to the OD of the AROCLOR 1248 standard (0.7 ppm) which was tested simultaneously with the sample. If the sample OD is less than the standard OD, the sample contains greater than 1 ppm PCBs. If the sample OD is greater than the standard OD, the sample contains less than 1 ppm PCBs. Other concentration ranges can be assessed by diluting the test samples with suitable diluents, as long as they are non-reactive with the components of the assay.
# These compounds were tested for their reactivity with the present 1 ppm PCB immunoassay. […] Overall, the compounds were each less than 1% cross-reactive, with one exception at 2%, indicating high-specificity for PCBs in the present method.
Molecule,PERCENT CROSS-REACTIVITY,CONCENTRATION GIVING A POSITIVE RESULT; SOIL EQUIVALENT,CON[…] A POSITIVE RESULT; SOIL EQUIVALENT
"Clc1ccc(Cl)c(Cl)c1 [1,2,4-TRICHLOROBENZENE]",< 1%,"100-1,000 PPM",
Clc1cccc2ccccc12 [1-CHLORONAPHTHALENE],< 0.01%,"> 10,000 PPM",
"Clc1cc(Cl)c(-c2ccc(-c3ccccc3)cc2)c(Cl)c1 [2,4,6-TRICHLOR-p-TERPHENYL]",< 0.01%,"> 10,000 PPM",
"Oc1c(Cl)cc(Cl)c2ccccc12 [2,4-DICHLORO-1-NAPTHOL]",2%,50 PPM,
"O=S(=O)(Oc1ccc(Cl)cc1Cl)c1ccccc1 [2,4-DICHLOROPHENYL BENZENESULFONATE]",< 1%,"100-1,000 PPM",
"O=C(O)COc1ccc(Cl)cc1Cl [2,4-D]",< 0.1%,"1,000-10,000 PPM",
"Clc1c2ccccc2c(Cl)c2ccccc12 [9,10-DICHLOROANTHRACENE, 9,10-DICHLORO-ANTHRACENE]",< 0.01%,"> 10,000 PPM",
c1ccccc1 [BENZENE],< 0.01%,,"> 10,000 PPM"
COC(=O)c1cc(Oc2ccc(Cl)cc2Cl)ccc1[N+](=O)[O-] [BIFENOX],< 1%,"100-1,000 PPM",
Clc1c(Cl)c(Cl)c(Cl)c(Cl)c1Cl [HEXACHLOROBENZENE],< 0.01%,"> 10,000 PPM",
ClCCl [METHYLENE CHLORIDE],< 0.01%,,"> 10,000 PPM"
c1ccc2ccccc2c1 [NAPHTHALENE],< 0.01%,"> 10,000 PPM",
"Clc1ccc(C(c2ccccc2Cl)C(Cl)(Cl)Cl)cc1 (centres unmarked) [O,P-DDT]",< 0.01%,"> 10,000 PPM",
Clc1cc(Cl)c(Cl)c(Cl)c1Cl [PENTACHLOROBENZENE],< 0.01%,"> 10,000 PPM",
Oc1c(Cl)c(Cl)c(Cl)c(Cl)c1Cl [PENTACHLOROPHENOL],< 0.01%,"> 10,000 PPM",
CC(Oc1cc(Cl)c(Cl)cc1Cl)C(=O)O (centres unmarked) [SILVEX],< 1%,"100-1,000 PPM",
O=S(=O)(c1ccc(Cl)cc1)c1cc(Cl)c(Cl)cc1Cl [TETRADIFON],< 10%,10-100 PPM,
ClC=C(Cl)Cl [TRICHLOROETHYLENE],< 0.01%,"> 10,000 PPM",
XYLENES,< 0.01%,"> 10,000 PPM",
